Laboratory results published in ChEMBL document CHEMBL3046216, “Synthesis, biological evaluation and QSAR study of a series of substituted quinazolines as antimicrobial agents” (2013).
Values after ≈ are worked out from the molar mass of the structure shown. Active and inactive are the calls of the source. The rule behind the calls is not given here.

Key:
Assay type in all cases: functional
Pseudomonas aeruginosa = assay: Antimicrobial activity against Pseudomonas aeruginosa ATCC 27853 assessed as growth inhibition after 24 hr by NCCLS broth dilution method
Escherichia coli = assay: Antimicrobial activity against Escherichia coli ATCC 25922 assessed as growth inhibition after 24 hr by NCCLS broth dilution method
Bacillus subtilis = assay: Antimicrobial activity against Bacillus subtilis ATCC 6633 assessed as growth inhibition after 24 hr by NCCLS broth dilution method
Staphylococcus aureus = assay: Antimicrobial activity against Staphylococcus aureus ATCC 25923 assessed as growth inhibition after 24 hr by NCCLS broth dilution method

| SMILES | MIC (Pseudomonas aeruginosa) | MIC (Pseudomonas aeruginosa; ATCC 27853, 24 h) | MIC (Escherichia coli) | MIC (Escherichia coli; ATCC 25922, 24 h) | MIC (Bacillus subtilis) | MIC (Bacillus subtilis; ATCC 6633, 24 h) | MIC (Staphylococcus aureus) | MIC (Staphylococcus aureus; ATCC 25923, 24 h) |
| --- | --- | --- | --- | --- | --- | --- | --- | --- |
| Cc1ccccc1NC(=S)Nc1cc2c(Sc3nnc(-c4cccnc4)o3)ncnc2cc1N1CCN(C)CC1 | inactive | 25 mg/L (≈ 43.9 µM) | inactive | 100 mg/L (≈ 176 µM) | inactive | 75 mg/L (≈ 132 µM) | inactive | 50 mg/L (≈ 87.8 µM) |
| CN1CCN(c2cc3ncnc(Sc4nnc(-c5cccnc5)o4)c3cc2NC(=O)NC2CCCCC2)CC1 | inactive | 50 mg/L (≈ 91.6 µM) | inactive | 25 mg/L (≈ 45.8 µM) | inactive | 12.5 mg/L (≈ 22.9 µM) | inactive | 50 mg/L (≈ 91.6 µM) |
| Cc1cccc(NC(=S)Nc2ccc3ncnc(Sc4nnc(-c5cccnc5)o4)c3c2)c1 | inactive | 100 mg/L (≈ 212 µM) | inactive | 50 mg/L (≈ 106 µM) | inactive | 75 mg/L (≈ 159 µM) | inactive | 75 mg/L (≈ 159 µM) |
| S=C(Nc1ccc2ncnc(Sc3nnc(-c4cccnc4)o3)c2c1)Nc1ccccc1Cl | inactive | 50 mg/L (≈ 102 µM) | inactive | 25 mg/L (≈ 50.8 µM) | inactive | 50 mg/L (≈ 102 µM) | inactive | 25 mg/L (≈ 50.8 µM) |
| CN1CCN(c2cc3ncnc(Sc4nnc(-c5cccnc5)o4)c3cc2NC(=S)Nc2ccccc2)CC1 | inactive | 50 mg/L (≈ 90 µM) | inactive | 25 mg/L (≈ 45 µM) | inactive | 25 mg/L (≈ 45 µM) | inactive | 50 mg/L (≈ 90 µM) |
| CN1CCN(c2cc3ncnc(Sc4nnc(-c5cccnc5)o4)c3cc2NC(=O)Nc2ccccc2)CC1 | inactive | 50 mg/L (≈ 92.7 µM) | inactive | 25 mg/L (≈ 46.3 µM) | inactive | 12.5 mg/L (≈ 23.2 µM) | inactive | 25 mg/L (≈ 46.3 µM) |
| S=C(Nc1ccccc1)Nc1ccc2ncnc(Sc3nnc(-c4cccnc4)o3)c2c1 | inactive | 100 mg/L (≈ 219 µM) | inactive | 50 mg/L (≈ 109 µM) | inactive | 75 mg/L (≈ 164 µM) | inactive | 50 mg/L (≈ 109 µM) |
| O=C(Nc1ccc2ncnc(Sc3nnc(-c4cccnc4)o3)c2c1)Nc1ccccc1Cl | inactive | 75 mg/L (≈ 158 µM) | inactive | 25 mg/L (≈ 52.5 µM) | inactive | 12.5 mg/L (≈ 26.3 µM) | inactive | 25 mg/L (≈ 52.5 µM) |
| Fc1ccc(NC(=S)Nc2ccc3ncnc(Sc4nnc(-c5cccnc5)o4)c3c2)cc1 | inactive | 50 mg/L (≈ 105 µM) | inactive | 12.5 mg/L (≈ 26.3 µM) | inactive | 6.25 mg/L (≈ 13.1 µM) | inactive | 6.25 mg/L (≈ 13.1 µM) |
| Cc1cccc(NC(=O)Nc2cc3c(Sc4nnc(-c5cccnc5)o4)ncnc3cc2N2CCN(C)CC2)c1 | inactive | 50 mg/L (≈ 90.3 µM) | inactive | 25 mg/L (≈ 45.2 µM) | inactive | 25 mg/L (≈ 45.2 µM) | inactive | 50 mg/L (≈ 90.3 µM) |
| CC1(C)S[C@@H]2[C@H](NC(=O)[C@H](N)c3ccccc3)C(=O)N2[C@H]1C(=O)O.O.O.O [AMPICILLIN TRIHYDRATE] | inactive | – | inactive | 10 mg/L | inactive | 0.25 mg/L | inactive | 0.05 mg/L |
| Cc1ccc(NC(=S)Nc2cc3c(Sc4nnc(-c5cccnc5)o4)ncnc3cc2N2CCN(C)CC2)cc1 | inactive | 50 mg/L (≈ 87.8 µM) | inactive | 50 mg/L (≈ 87.8 µM) | inactive | 50 mg/L (≈ 87.8 µM) | inactive | 12.5 mg/L (≈ 21.9 µM) |
| CN1CCN(c2cc3ncnc(Sc4nnc(-c5cccnc5)o4)c3cc2NC(=S)NC2CCCCC2)CC1 | inactive | 50 mg/L (≈ 89 µM) | inactive | 25 mg/L (≈ 44.5 µM) | inactive | 75 mg/L (≈ 134 µM) | inactive | 100 mg/L (≈ 178 µM) |
| Cc1ccccc1NC(=O)Nc1cc2c(Sc3nnc(-c4cccnc4)o3)ncnc2cc1N1CCN(C)CC1 | inactive | 100 mg/L (≈ 181 µM) | inactive | 50 mg/L (≈ 90.3 µM) | inactive | 100 mg/L (≈ 181 µM) | inactive | 12.5 mg/L (≈ 22.6 µM) |
| Cc1ccc(NC(=O)Nc2ccc3ncnc(Sc4nnc(-c5cccnc5)o4)c3c2)cc1 | inactive | 12.5 mg/L (≈ 27.4 µM) | inactive | 50 mg/L (≈ 110 µM) | inactive | 75 mg/L (≈ 165 µM) | inactive | 12.5 mg/L (≈ 27.4 µM) |
| Cc1ccc(NC(=S)Nc2ccc3ncnc(Sc4nnc(-c5cccnc5)o4)c3c2)cc1 | inactive | 75 mg/L (≈ 159 µM) | inactive | 50 mg/L (≈ 106 µM) | inactive | 25 mg/L (≈ 53 µM) | inactive | 25 mg/L (≈ 53 µM) |
| CN1CCN(c2cc3ncnc(Sc4nnc(-c5cccnc5)o4)c3cc2NC(=O)Nc2ccccc2Cl)CC1 | inactive | 100 mg/L (≈ 174 µM) | inactive | 50 mg/L (≈ 87.1 µM) | inactive | 50 mg/L (≈ 87.1 µM) | inactive | 25 mg/L (≈ 43.5 µM) |
| O=C(Nc1ccc2ncnc(Sc3nnc(-c4cccnc4)o3)c2c1)NC1CCCCC1 | inactive | 100 mg/L (≈ 223 µM) | inactive | 50 mg/L (≈ 112 µM) | inactive | 50 mg/L (≈ 112 µM) | inactive | 25 mg/L (≈ 55.9 µM) |
| CN1CCN(c2cc3ncnc(Sc4nnc(-c5cccnc5)o4)c3cc2NC(=O)Nc2ccc(Cl)cc2)CC1 | inactive | 50 mg/L (≈ 87.1 µM) | inactive | 12.5 mg/L (≈ 21.8 µM) | inactive | 6.25 mg/L (≈ 10.9 µM) | inactive | 25 mg/L (≈ 43.5 µM) |
| O=C(NCCc1ccccc1)Nc1ccc2ncnc(Sc3nnc(-c4cccnc4)o3)c2c1 | inactive | 75 mg/L (≈ 160 µM) | inactive | 50 mg/L (≈ 106 µM) | inactive | 50 mg/L (≈ 106 µM) | inactive | 12.5 mg/L (≈ 26.6 µM) |
| O=C(Nc1ccc(-c2ccccc2)cc1)Nc1ccc2ncnc(Sc3nnc(-c4cccnc4)o3)c2c1 | inactive | 75 mg/L (≈ 145 µM) | inactive | 100 mg/L (≈ 193 µM) | inactive | 12.5 mg/L (≈ 24.2 µM) | inactive | 12.5 mg/L (≈ 24.2 µM) |
| Cc1ccccc1NC(=O)Nc1ccc2ncnc(Sc3nnc(-c4cccnc4)o3)c2c1 | inactive | 75 mg/L (≈ 165 µM) | inactive | 25 mg/L (≈ 54.9 µM) | inactive | 50 mg/L (≈ 110 µM) | inactive | 25 mg/L (≈ 54.9 µM) |
| CN1CCN(c2cc3ncnc(Sc4nnc(-c5cccnc5)o4)c3cc2NC(=O)NCCc2ccccc2)CC1 | inactive | 50 mg/L (≈ 88.1 µM) | inactive | 12.5 mg/L (≈ 22 µM) | inactive | 25 mg/L (≈ 44 µM) | inactive | 6.25 mg/L (≈ 11 µM) |
